Assay results as given in the supplement of paper PMC10307832.

Assays:
Assay in all cases: relative viability (nuclei count vs DMSO), 5 days (fraction); higher = more cells survive
Bortezomib + Dasatinib = compound: CC(C)C[C@H](NC(=O)[C@H](Cc1ccccc1)NC(=O)c1cnccn1)B(O)O [Bortezomib] + Cc1nc(Nc2ncc(C(=O)Nc3c(C)cccc3Cl)s2)cc(N2CCN(CCO)CC2)n1 [Dasatinib] (partner 0.075 µM)
Outline: (§1)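 Values are medians from duplicate plates. Each reflects relative viability, defined as the nuclei count of treated wells over that of vehicle wells. Lung cancer cell lines in 1536-well plates were pin-tool dosed one day after seeding with one drug alone or with a fixed anchor-drug dose plus five library-drug doses (not always all listed) in √10 steps, then fixed, stained and imaged at 4× after 5 days.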

[1] = compound: CC1=CC(=NN1)NC2=CC(=NC(=N2)/C=C/C3=CC=CC=C3)N4CCN(CC4)C + Cc1nc(Nc2ncc(C(=O)Nc3c(C)cccc3Cl)s2)cc(N2CCN(CCO)CC2)n1 [Dasatinib] (partner 0.075 µM)
Outline: as §1

[2] = compound: CC1=CC(=NN1)NC2=CC(=NC(=N2)/C=C/C3=CC=CC=C3)N4CCN(CC4)C + COc1cccc2cc(-c3nc([C@H]4CC[C@H](C(=O)O)CC4)n4ncnc(N)c34)[nH]c12 [OSI-027] (partner 0.5 µM)
Outline: as §1

Obatoclax + Decitabine = compound: COC1=CC(c2cc3ccccc3[nH]2)=N/C1=C\c1[nH]c(C)cc1C [Obatoclax] + Nc1ncn([C@H]2C[C@H](O)[C@@H](CO)O2)c(=O)n1 [Decitabine] (partner 2 µM)
Outline: as §1

Row | Cell Line | relative viability (Bortezomib + Dasatinib; first compound 0.0002 µM) | relative viability (Bortezomib + Dasatinib; first compound 0.000632 µM) | relative viability (Bortezomib + Dasatinib; first compound 0.002 µM) | relative viability (Bortezomib + Dasatinib; first compound 0.006325 µM) | relative viability (Bortezomib + Dasatinib; first compound 0.02 µM) | relative viability ([1]; first compound 0.08 µM) | relative viability ([1]; first compound 0.253 µM) | relative viability ([1]; first compound 0.8 µM) | relative viability ([1]; first compound 2.53 µM) | relative viability ([1]; first compound 8 µM) | relative viability ([2]; first compound 0.08 µM) | relative viability ([2]; first compound 0.253 µM) | relative viability ([2]; first compound 0.8 µM) | relative viability ([2]; first compound 2.53 µM) | relative viability ([2]; first compound 8 µM) | relative viability (Obatoclax + Decitabine; first compound 0.01 µM) | relative viability (Obatoclax + Decitabine; first compound 0.03162 µM) | relative viability (Obatoclax + Decitabine; first compound 0.1 µM) | relative viability (Obatoclax + Decitabine; first compound 0.3162 µM) | relative viability (Obatoclax + Decitabine; first compound 1 µM)
1 | 201T | 0.571 | 0.607 | 0.536 | 0.589 | 0.283 | 0.586 | 0.546 | 0.541 | 0.435 | 0.208 | 0.718 | 0.756 | 0.803 | 0.531 | 0.112 | 0.814 | 0.731 | 0.868 | 0.857 | 0.92
2 | A549 | – | – | – | – | – | – | – | – | – | – | – | – | – | – | – | 0.205 | 0.122 | – | 0.282 | 0.309
3 | A-427 | 0.611 | 0.746 | 0.716 | 0.408 | 0.104 | 0.789 | 0.579 | 0.631 | 0.156 | 0.0981 | 0.531 | 0.295 | 0.466 | 0.192 | 0.0905 | 0.528 | 0.525 | 0.491 | 0.614 | 0.504
4 | ABC-1 | 0.6 | 0.317 | 0.243 | 0.224 | 0.233 | 0.496 | 0.692 | 0.522 | 0.207 | 0.145 | 0.453 | 0.54 | 0.644 | 0.179 | 0.143 | 1.38 | 1.31 | 0.999 | 1.17 | 1.07
5 | BEN | 0.262 | 0.408 | 0.343 | 0.246 | 0.249 | 0.339 | 0.306 | 0.32 | 0.257 | 0.164 | 0.294 | 0.264 | 0.271 | 0.244 | 0.162 | 0.756 | 0.553 | 0.393 | 0.624 | 0.659
6 | CAL-12T | 0.538 | 0.347 | 0.53 | 0.119 | 0.0844 | 0.52 | 0.38 | 0.342 | 0.0924 | 0.0804 | 0.666 | 0.651 | 0.447 | 0.14 | 0.12 | – | – | – | – | –
7 | COR-L23 | 0.461 | 0.459 | 0.485 | 0.045 | 0.054 | 0.423 | 0.445 | 0.493 | 0.143 | 0.0623 | 0.817 | 0.753 | 0.67 | 0.361 | 0.0841 | 0.478 | 0.404 | 0.488 | 0.235 | 0.194
8 | COR-L 105 | 0.381 | 0.324 | 0.352 | 0.267 | 0.216 | 0.388 | 0.369 | 0.302 | 0.207 | 0.153 | 0.773 | 0.834 | 0.678 | 0.255 | 0.178 | 0.68 | 0.665 | 0.634 | 0.525 | 0.407
9 | ChaGo-K-1 | 0.535 | 0.539 | 0.558 | 0.207 | 0.13 | 0.58 | 0.598 | 0.476 | 0.151 | 0.132 | 0.566 | 0.548 | 0.528 | 0.191 | 0.131 | 0.497 | 0.476 | 0.506 | 0.509 | 0.516
10 | EKVX | 0.544 | 0.526 | 0.707 | 0.397 | 0.185 | 0.55 | 0.579 | 0.603 | 0.499 | 0.151 | 0.699 | 0.845 | 0.664 | 0.611 | 0.3 | 0.343 | – | 0.313 | 0.368 | 0.324
11 | EMC-BAC-2 | 0.313 | 0.318 | 0.494 | 0.157 | 0.188 | 0.308 | 0.268 | 0.298 | 0.202 | 0.0961 | 0.364 | 0.426 | 0.32 | 0.226 | 0.097 | 0.95 | 0.977 | – | 0.98 | 0.541
12 | EPLC-272H | 0.342 | 0.192 | 0.277 | 0.0803 | 0.0618 | 0.344 | 0.37 | 0.37 | 0.15 | 0.217 | 0.305 | 0.277 | 0.231 | 0.202 | 0.171 | 0.368 | 0.349 | 0.43 | 0.314 | 0.303
13 | H3255 | 0.332 | 0.271 | 0.299 | 0.37 | 0.28 | 0.346 | 0.347 | 0.352 | 0.427 | 0.242 | 0.582 | 0.541 | 0.579 | 0.589 | 0.382 | 0.595 | 0.581 | – | 0.589 | 0.623
14 | HARA | 0.206 | 0.239 | 0.259 | 0.105 | 0.0621 | 0.26 | 0.236 | 0.221 | 0.183 | 0.0802 | 0.361 | 0.474 | 0.649 | 0.252 | 0.0476 | 0.52 | 0.593 | 0.528 | 0.462 | 0.405
15 | HCC-15 | 0.514 | 0.629 | 0.649 | 0.0786 | 0.0817 | 0.634 | 0.672 | 0.479 | 0.0991 | 0.0639 | 0.665 | 0.642 | 0.549 | 0.158 | 0.0878 | 0.678 | 0.568 | 0.509 | 0.615 | 0.434
16 | HCC-44 | – | – | – | – | – | – | – | – | – | – | 0.615 | 0.49 | 0.633 | 0.292 | 0.144 | 0.968 | 0.643 | 0.966 | 0.902 | 0.84
17 | HCC-78 | 0.354 | 0.385 | 0.291 | 0.422 | 0.274 | 0.444 | 0.436 | 0.469 | 0.234 | 0.221 | 0.325 | 0.357 | 0.387 | 0.343 | 0.198 | 0.617 | 0.511 | 0.706 | 0.616 | 0.699
18 | HCC-366 | 0.664 | 0.474 | 0.726 | 0.481 | 0.0296 | 0.708 | 0.645 | 0.544 | 0.0369 | 0.0193 | 0.833 | 0.618 | 0.875 | 0.0773 | 0.0341 | 0.318 | 0.271 | 0.306 | 0.347 | 0.274
